± gives the expanded uncertainty stated by the source.

With `[Al]` [aluminum], the Normal melting temperature (Crystal 1, DTA) amounted to 662.00 ± 2 °C.

For the molecule `[K+].[O-][Cl+3]([O-])([O-])[O-]` [potassium perchlorate], the Triple point temperature (Crystal 2, DSC) worked out at 579.15 ± 2 K.
